pIC50, pKd, pKi: −log10 of the molar value. Entries after “also recorded” stand apart in the source; their conditions may differ. Like-named read-outs stand apart in the source and are kept apart here.

The term pKi denotes the Ki on a negative log10 scale, so that one unit is a factor of ten. For orientation: pIC50 means the negative decadic logarithm of the IC50, by convention in mol/L. As a reminder, the pKd is −log10 of the Kd, conventionally taken in molar units. By CC50 is commonly meant the concentration giving 50% cytotoxicity.

One series deals with human LDH-M (LDH-A4). Set-up: method as in PMID 9748363. As to conditions: cited from earlier work.
Series [1] relates to Plasmodium falciparum LDH. Also on record: method as in PMID 9748363. As to conditions: cited from earlier work.
For series [2], the system named is LDH activity in B. microti. As to conditions: cited from earlier work; for pIC50: previous work.
The target of series [3] is T1, rBmLDH (Babesia microti, UniProt I7J7V6). Type of series: biochemical. As to conditions: pH 9.5; read-out: BmLDH IC50.
T1 sequence (I7J7V6 1-332): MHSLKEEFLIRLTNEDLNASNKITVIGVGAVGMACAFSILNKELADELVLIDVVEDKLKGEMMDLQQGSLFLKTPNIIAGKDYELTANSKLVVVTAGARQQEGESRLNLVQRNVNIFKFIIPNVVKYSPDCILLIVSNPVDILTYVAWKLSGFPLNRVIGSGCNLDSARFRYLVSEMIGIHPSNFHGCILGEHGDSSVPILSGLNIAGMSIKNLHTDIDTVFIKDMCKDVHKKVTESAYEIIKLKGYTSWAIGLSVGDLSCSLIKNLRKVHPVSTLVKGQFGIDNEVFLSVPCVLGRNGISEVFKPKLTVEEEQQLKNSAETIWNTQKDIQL
In series [4] the target is T1, rBmLDH. It is filed as binding. As to conditions: for pKd: read-out: equilibrium dissociation constant (Kd).
The nature of another series: in vitro. As to conditions: African green monkey. Type of series: cell-based. The procedure: The mycoplasma-free Vero cell line (ATCC-CCL-81, immortalized cells) was cryopreserved in liquid nitrogen with DMSO at the National Key Laboratory of Agricultural Microbiology, Huazhong Agricultural University, China. The cytotoxicity of compounds TA and TB was assessed in Vero cells using the CCK-8 assay (Vazyme). Briefly, Vero cells (100 µL, 10,000 cells/well) were cultured in Dulbecco’s modified Eagle medium (DMEM) supplemented with 10% fetal bovine serum (FBS) and 100 U/mL penicillin–streptomycin at 37 ℃ with 5% CO2 for 24 h. The cells were then treated with varying concentrations of TA (2000, 1000, 500, 250, and 125 μM) or TB (800, 400, 200, 100, and 50 μM) for 72 h. After the treatment period, the medium containing TA and TB was replaced with fresh medium. Subsequently, 10 µL of CCK-8 solution was added to each well, and the plate was incubated for an additional 3 h. Absorbance was measured at 450 nm using a multifunctional enzyme marker (Envision, PE, USA). Stock solutions of TA and TB were prepared at a concentration of 100 mM in absolute ethanol. Doxorubicin hydrochloride at 40 µM served as the positive control, while 2% absolute ethanol served as the negative control. The concentration required to achieve 50% cytotoxicity (CC50) values were calculated using GraphPad Prism 8, and all cytotoxicity assays were performed in triplicate.

The next series deals with B. microti. As to the kind of experiment: In vitro growth inhibition of B. microti. It is filed as cell-based. As to conditions: Babesia microti, Erythrocyte, 72 h, read-out: B. microti IC50 (growth inhibition). The method, then: Once parasitemia reached 60%, blood was collected from the tails of the mice, and the initial percent parasitized erythrocytes (PPE) was diluted to approximately 0.8% using healthy mouse erythrocytes. […] Cultures were incubated for 72 h at 37 ℃ in a gas mixture of 2% O2, 5% CO2, and 93% N2 [23, 24]. After incubation, blood smears were prepared, stained with Giemsa, and the parasitemia rate was calculated. All experiments were performed in triplicate.

Turning to `CCCc1c(O)c(O)c(C(=O)O)c2cc(Cc3ccccc3)c(C)cc12` [Compound 11F], the negative logarithm of the Ki (pKi) on human LDH-M (LDH-A4) is 7.30; in series [1] it was 6.52.

`O=C(O)c1cc2cc(Br)ccc2c(Br)c1O` [DBHCA, 1,6-dibromo-2-hydroxynapthalene 3-carboxylic acid]: the pIC50 in series [2] is 4.28.

For `O=C(O)c1cc2cccc(O)c2cc1O` [DHNA, 3,5-dihydroxy-2-naphthoxylic acid], the pIC50 in series [2] is 4.52.

For the molecule `Cc1cc2c(C(C)C)c(O)c(O)c(C=O)c2c(O)c1-c1c(C)cc2c(C(C)C)c(O)c(O)c(C=O)c2c1O` [Gossypol], the “concentration that significantly inhibits LDH activity in B. microti” value in series [2] (in vitro) was 592 nM.

For `O=C(O)c1ccccc1Cc1ccc2ccc(O)cc2c1` [TA], the negative-log IC50 (pIC50) on rBmLDH [3] was 4.15. In addition, at rBmLDH [4], the “binding capacity/affinity to rBmLDH compared with lead compound DHNA” value is listed as “over a threefold increase in binding capacity; also recorded: more than three times higher affinity” and the pKd is 4.95. It took 1030 µM to reach half-maximal cytotoxicity in “in vitro” (CC50 at 72 h). Moreover, in the series on B. microti (in vitro culture in mouse erythrocytes, 37 ℃), the pIC50 was 3.91.

Consider `O=C(O)c1cccc(-c2ccc3ccc(O)cc3c2)c1` [TB], for which, on rBmLDH [3], the pIC50 is 4.62. On rBmLDH [4], the “binding capacity/affinity to rBmLDH compared with lead compound DHNA” value is given as “over a threefold increase in binding capacity; also recorded: more than three times higher affinity” and the negative-log Kd (pKd) was 4.88. In the series “in vitro”, this molecule came in with a CC50 at 72 h of 434 µM. Also, in the series on B. microti (in Mus musculus), the pIC50 was 3.95.

These data come from paper PMC11847361, “Design and screening of novel molecular compounds targeting lactate dehydrogenase of Babesia microti” (Parasites & Vectors, 2025).
